This is an account of results in patent US9732119B2, “Immunomodulators” (BRISTOL-MYERS SQUIBB COMPANY, priority 2014, dated 2017).

Structures are written as SMILES. Positions of bridges follow the written chain, without caps; N, C: chain ends. Non-standard residues stand in square brackets, D forms with d. Residues, ends and D or L forms follow the SMILES beside them. Trp(1-CH2COOH) = N[C@@H](Cc1cn(CC(=O)O)c2ccccc12)C(=O)O; Phe(4-F) = N[C@@H](Cc1ccc(F)cc1)C(=O)O; Phe(4-Me) = Cc1ccc(C[C@H](N)C(=O)O)cc1; Hyp = O=C(O)[C@@H]1C[C@@H](O)CN1; Aad = N[C@@H](CCCC(=O)O)C(=O)O; NMeNle = CCCC[C@H](NC)C(=O)O; dOrn = NCCC[C@@H](N)C(=O)O; Pip = O=C(O)[C@@H]1CCCCN1; NMeA = CN[C@@H](C)C(=O)O; Dab = NCC[C@H](N)C(=O)O; Dap = NC[C@H](N)C(=O)O; AEA = NCCOCC(=O)O; Ava = NCCCCC(=O)O; Sar = CNCC(=O)O

This test deals with T1, PD-1-Ig binding to PD-L1-TVMV-His (PD-L1-His) (Homo sapiens, UniProt Q9NZQ7).
T1 construct: hPDL1(19-239)-TVMV-His; made in house; host or cells: HEK293T cells
T1 sequence (Q9NZQ7 with tags, fused parts or gaps): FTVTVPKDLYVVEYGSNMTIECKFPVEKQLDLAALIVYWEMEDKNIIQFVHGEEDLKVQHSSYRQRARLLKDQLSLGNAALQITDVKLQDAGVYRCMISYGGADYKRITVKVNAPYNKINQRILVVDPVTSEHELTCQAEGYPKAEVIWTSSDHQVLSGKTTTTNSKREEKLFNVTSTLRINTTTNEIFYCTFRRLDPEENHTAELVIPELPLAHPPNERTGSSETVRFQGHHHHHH
Description: PD-1/PD-L1 Homogenous Time-Resolved Fluorescence (HTRF) binding assay. The conditions noted are these: PD-1-Ig (20 nM) / PD-L1-His (10 nM). From the text: The ability of the macrocyclic peptides of the present disclosure to bind to PD-L1 was investigated using a PD-1/PD-L1 Homogenous Time-Resolved Fluorescence (HTRF) binding assay.
Homogenous Time-Resolved Fluorescence (HTRF) Assays of Binding of Soluble PD-1 to Soluble PD-L1. Soluble PD-1 and soluble PD-L1 refers to proteins with carboxyl-end truncations that remove the transmembrane-spanning regions and are fused to heterologous sequences, specifically the Fc portion of the human immunoglobuling G sequence (Ig) or the hexahistidine epitope tag (His). All binding studies were performed in an HTRF assay buffer consisting of dPBS supplemented with 0.1% (w/v) bovine serum albumin and 0.05% (v/v) Tween-20. For the PD-1-Ig/PD-L1-His binding assay, inhibitors were pre-incubated with PD-L1-His (10 nM final) for 15 m in 4 μl of assay buffer, followed by addition of PD-1-Ig (20 nM final) in 1 μl of assay buffer and further incubation for 15 m. PD-L1 fusion proteins from either human, cynomologous macaques, mouse, or other species were used. HTRF detection was achieved using europium crypate-labeled anti-Ig monoclonal antibody (1 nM final) and allophycocyanin (APC) labeled anti-His monoclonal antibody (20 nM final). Antibodies were diluted in HTRF detection buffer and 5 μl was dispensed on top of binding reaction. […] Additional binding assays were established between PD-1-Ig/PD-L2-His (20 and 5 nM, respectively), CD80-His/PD-L1-Ig (100 and 10 nM, respectively) and CD80-His/CTLA4-Ig (10 and 5 nM, respectively).
Recombinant Proteins. […] Human PD-L2-His (Sino Biologicals), CD80-His (Sino Biologicals), CTLA4-Ig (RnD Systems) were all obtained through commercial sources.
Background: In TR-FRET formats the signal depends on donor and acceptor labels being close together.

As for `CCCC[C@H]1C(=O)N(C)[C@@H](CCCC)C(=O)N[C@@H](CC(C)C)C(=O)N[C@H](C(N)=O)CCCC(=O)N[C@@H](Cc2ccc(C)cc2)C(=O)N2CCCC[C@H]2C(=O)N[C@@H](CC(N)=O)C(=O)N2CCC[C@H]2C(=O)N[C@@H](CN)C(=O)N[C@@H](CCC(=O)O)C(=O)N2C[C@H](O)C[C@H]2C(=O)N[C@@H](Cc2c[nH]c3ccccc23)C(=O)N[C@@H](CCN)C(=O)N[C@@H](Cc2cn(CC(=O)O)c3ccccc23)C(=O)N1C` [Example 10521] ([Phe(4-Me)][Pip]NP[Dap]E[Hyp]W[Dab][Trp(1-CH2COOH)][NMeNle][NMeNle]L[Aad]-NH2; lactam N-14), the IC50 (range classes) lay in the range of 10 to 99 nM.

The compound `CCCC[C@H]1C(=O)N(C)[C@@H](CCCC)C(=O)N[C@@H](CC(C)C)C(=O)N[C@H](C(=O)NCC(N)=O)CNCC(=O)N[C@@H](Cc2ccc(O)cc2)C(=O)N(C)[C@@H](C)C(=O)N[C@@H](CC(N)=O)C(=O)N2CCC[C@H]2C(=O)N[C@@H](CCC(N)=O)C(=O)N[C@@H](CCC(N)=O)C(=O)N2C[C@H](O)C[C@H]2C(=O)N[C@@H](Cc2c[nH]c3ccccc23)C(=O)N[C@@H](CC(N)=O)C(=O)N[C@@H](Cc2cn(CC(=O)O)c3ccccc23)C(=O)N1C` [Example 9008] returned an IC50 (range classes) of 1 to 9.9 nM. In the case of `CCCC[C@H]1C(=O)N(C)[C@@H](CCCC)C(=O)N[C@@H](CC(C)C)C(=O)NCCCCC(=O)N[C@@H](Cc2ccc(O)cc2)C(=O)N2CCCC[C@H]2C(=O)N[C@@H](CC(N)=O)C(=O)N2CCC[C@H]2C(=O)N[C@@H](CN)C(=O)N[C@@H](CC(C)C)C(=O)N2C[C@H](O)C[C@H]2C(=O)N[C@@H](Cc2c[nH]c3ccccc23)C(=O)N[C@@H](CCN)C(=O)N[C@@H](Cc2cn(CC(=O)O)c3ccccc23)C(=O)N1C` [Example 10512] (cyclo([Ava]Y[Pip]NP[Dap]L[Hyp]W[Dab][Trp(1-CH2COOH)][NMeNle][NMeNle]L)), the IC50 (range classes) lay within 100 to 10000 nM.

Compound `CCCC[C@H]1C(=O)N(C)[C@@H](CCCC)C(=O)N[C@@H](CC(C)C)C(=O)N[C@H](C(N)=O)CNCC(=O)N[C@@H](Cc2ccc(F)cc2)C(=O)N2CCCC[C@H]2C(=O)N[C@@H](CC(=O)O)C(=O)N2CCC[C@H]2C(=O)N[C@@H](CCC(N)=O)C(=O)N[C@@H](CC(C)C)C(=O)N2C[C@H](O)C[C@H]2C(=O)N[C@@H](Cc2c[nH]c3ccccc23)C(=O)N[C@@H](CC(N)=O)C(=O)N[C@@H](Cc2cn(CC(=O)O)c3ccccc23)C(=O)N1C` [Example 9038] showed an IC50 (range classes) of 1 to 9.9 nM.

Where the note is “range classes”, `CCCC[C@H]1C(=O)N(C)[C@@H](CCCC)C(=O)N[C@@H](CC(C)C)C(=O)NCCOCC(=O)N[C@@H](Cc2ccccc2)C(=O)N(C)[C@@H](C)C(=O)N[C@@H](CC(C)C)C(=O)N2CCC[C@H]2C(=O)NCC(=O)N[C@@H](CC(C)C)C(=O)N2CCC[C@H]2C(=O)N[C@@H](Cc2ccccc2)C(=O)NCC(=O)N[C@@H](Cc2ccccc2)C(=O)N1C` [Example 10500] (cyclo([AEA]F[NMeA]LPGLPFGF[NMeNle][NMeNle]L)) yielded a concentration for half-maximal inhibition (IC50) of 100 to 10000 nM. On to `CCCC[C@H]1C(=O)N(C)[C@@H](CCCC)C(=O)N[C@@H](CC(C)C)C(=O)N[C@H](C(=O)NCC(N)=O)CCNCC(=O)N[C@@H](Cc2ccccc2)C(=O)N(C)[C@@H](C)C(=O)N[C@@H](CC(C)C)C(=O)N2CCC[C@H]2C(=O)N[C@@H](CC(C)C)C(=O)N[C@@H](CC(C)C)C(=O)N2CCC[C@H]2C(=O)N[C@@H](Cc2c[nH]c3ccccc23)C(=O)N[C@@H](CC(C)C)C(=O)N[C@@H](Cc2c[nH]c3ccccc23)C(=O)N1C` [Example 10009], for which the IC50 (range classes) was in the range of 100 to 10000 nM. The same measure, in the same setting: under `CCCC[C@H]1C(=O)N(C)[C@@H](CCCC)C(=O)N[C@@H](CC(C)C)C(=O)NCCOCC(=O)N[C@@H](Cc2ccc(O)cc2)C(=O)N(C)[C@@H](C)C(=O)N[C@@H](CC(N)=O)C(=O)N2CCC[C@H]2C(=O)N[C@@H](CN)C(=O)N[C@@H](CC(C)C)C(=O)N2C[C@H](O)C[C@H]2C(=O)N[C@@H](Cc2c[nH]c3ccccc23)C(=O)N[C@@H](CCN)C(=O)N[C@@H](Cc2c[nH]c3ccccc23)C(=O)N1C` [Example 10501] (cyclo([AEA]Y[NMeA]NP[Dap]L[Hyp]W[Dab]W[NMeNle][NMeNle]L)) stands 1 to 9.9 nM; under `CCCC[C@H]1C(=O)N(C)[C@@H](CCCC)C(=O)N[C@@H](CCC(=O)O)C(=O)N[C@H](C(N)=O)CCCC(=O)N[C@@H](Cc2ccc(OC)cc2)C(=O)N2CCCC[C@H]2C(=O)N[C@@H](CC(N)=O)C(=O)N2CCC[C@H]2C(=O)N[C@@H](CN)C(=O)N[C@@H](CC(C)C)C(=O)N2C[C@H](O)C[C@H]2C(=O)N[C@@H](Cc2c[nH]c3ccccc23)C(=O)N[C@@H](CCN)C(=O)N[C@@H](Cc2cn(CC(=O)O)c3ccccc23)C(=O)N1C` [Example 10563] (Y(Me)[Pip]NP[Dap]L[Hyp]W[Dab][Trp(1-CH2COOH)][NMeNle][NMeNle]E[Aad]-NH2; lactam N-14), 1 to 9.9 nM. Take `CCCC[C@H]1C(=O)N(C)[C@@H](CCCC)C(=O)N[C@@H](CC(C)C)C(=O)N[C@H](C(N)=O)COCC(=O)N[C@@H](Cc2ccc(F)cc2)C(=O)N2CCCC[C@H]2C(=O)N[C@@H](CC(N)=O)C(=O)N2CCC[C@H]2C(=O)N[C@@H](CN)C(=O)N[C@@H](CC(C)C)C(=O)N2C[C@H](O)C[C@H]2C(=O)N[C@@H](Cc2c[nH]c3ccccc23)C(=O)N[C@@H](CCN)C(=O)N[C@@H](Cc2cn(CC(=O)O)c3ccccc23)C(=O)N1C` [Example 10529]: under “range classes”, the IC50 fell in the range of 10 to 99 nM. Where the note is “range classes”, `CCCC[C@H]1C(=O)N(C)[C@@H](CCCC)C(=O)N[C@@H](CC(C)C)C(=O)N[C@H](C(=O)NCC(N)=O)CCCNCC(=O)N[C@@H](Cc2ccc(O)cc2)C(=O)N(C)[C@@H](C)C(=O)N[C@@H](CC(N)=O)C(=O)N2CCC[C@H]2C(=O)N[C@@H](Cc2cnc[nH]2)C(=O)N[C@@H](CCC(N)=O)C(=O)N2C[C@H](O)C[C@H]2C(=O)N[C@@H](Cc2c[nH]c3ccccc23)C(=O)NCC(=O)N[C@@H](Cc2cn(CC(=O)O)c3ccccc23)C(=O)N1C` [Example 10022] gave an IC50 of 10 to 99 nM.

On to `CCCC[C@H]1C(=O)N(C)[C@@H](CCCC)C(=O)N[C@@H](CC(C)C)C(=O)NCCC[C@@H](N)C(=O)N[C@@H](Cc2ccc(F)cc2)C(=O)N2CCCC[C@H]2C(=O)N[C@@H](CC(N)=O)C(=O)N2CCC[C@H]2C(=O)N[C@@H](CN)C(=O)N[C@@H](CCC(=O)O)C(=O)N2C[C@H](O)C[C@H]2C(=O)N[C@@H](Cc2c[nH]c3ccccc23)C(=O)N[C@@H](CCN)C(=O)N[C@@H](Cc2cn(CC(=O)O)c3ccccc23)C(=O)N1C` [Example 10570] (H-[dOrn][Phe(4-F)][Pip]NP[Dap]E[Hyp]W[Dab][Trp(1-CH2COOH)][NMeNle][NMeNle]L; lactam 1-C), for which, under “numeric values”, the IC50 stood at 12 nM.

`CCCC[C@H]1C(=O)N(C)[C@@H](CCCC)C(=O)N[C@@H](CCC(=O)O)C(=O)N[C@H](C(N)=O)CNCC(=O)N[C@@H](Cc2ccc(F)cc2)C(=O)N2CCCC[C@H]2C(=O)N[C@@H](CC(N)=O)C(=O)N2CCC[C@H]2C(=O)N[C@@H](Cc2c[nH]cn2)C(=O)N[C@@H](CCC(=O)O)C(=O)N2C[C@H](O)C[C@H]2C(=O)N[C@@H](Cc2c[nH]c3ccccc23)C(=O)N[C@@H](C)C(=O)N[C@@H](Cc2cn(CC(=O)O)c3ccccc23)C(=O)N1C` [Example 9058] gave an IC50 (range classes) of 1 to 9.9 nM. With `CCCC[C@H]1C(=O)N(C)[C@@H](CCCC)C(=O)N[C@@H](CC(C)C)C(=O)N(C)CC(=O)NCC(=O)N[C@@H](Cc2ccc(O)cc2)C(=O)N(C)[C@@H](C)C(=O)N[C@@H](CC(N)=O)C(=O)N2CCC[C@H]2C(=O)N[C@@H](CN)C(=O)N[C@@H](CC(C)C)C(=O)N2C[C@H](O)C[C@H]2C(=O)N[C@@H](Cc2c[nH]c3ccccc23)C(=O)N[C@@H](CCN)C(=O)N[C@@H](Cc2c[nH]c3ccccc23)C(=O)N1C` [Example 5009] (cyclo([Dab]W[NMeNle][NMeNle]L[Sar]GY[NMeA]NP[Dap]L[Hyp]W)), where the note is “range classes”, the IC50 is 1 to 9.9 nM.

`CCCC[C@H]1C(=O)N(C)[C@@H](CCCC)C(=O)N[C@@H](CC(C)C)C(=O)NCCOCC(=O)N[C@@H](Cc2ccc(O)cc2)C(=O)N(C)[C@@H](C)C(=O)N[C@@H](CC(N)=O)C(=O)N2CCC[C@H]2C(=O)N[C@@H](CN)C(=O)N[C@@H](CC(C)C)C(=O)N2C[C@H](O)C[C@H]2C(=O)N[C@@H](Cc2c[nH]c3ccccc23)C(=O)N[C@@H](CCN)C(=O)N[C@@H](Cc2cn(CC(=O)O)c3ccccc23)C(=O)N1C` [Example 10502] (cyclo([AEA]Y[NMeA]NP[Dap]L[Hyp]W[Dab][Trp(1-CH2COOH)][NMeNle][NMeNle]L)) returned an IC50 (range classes) of 1 to 9.9 nM. In the case of `CCCC[C@H]1C(=O)N(C)[C@@H](CCCC)C(=O)N[C@@H](CC(C)C)C(=O)NCCC[C@@H](N)C(=O)N[C@@H](Cc2ccc(C)cc2)C(=O)N2CCCC[C@H]2C(=O)N[C@@H](CC(N)=O)C(=O)N2CCC[C@H]2C(=O)N[C@@H](CN)C(=O)N[C@@H](CCC(=O)O)C(=O)N2C[C@H](O)C[C@H]2C(=O)N[C@@H](Cc2c[nH]c3ccccc23)C(=O)N[C@@H](CCN)C(=O)N[C@@H](Cc2cn(CC(=O)O)c3ccccc23)C(=O)N1C` [Example 10560] (H-[dOrn][Phe(4-Me)][Pip]NP[Dap]E[Hyp]W[Dab][Trp(1-CH2COOH)][NMeNle][NMeNle]L; lactam 1-C), for the setting “range classes”, the IC50 fell in the range of 10 to 99 nM.

Broadly, the IC50 is the concentration that gives 50% inhibition.
